Test results as given in US9156831B2, “Chemical compounds” (ASTRAZENECA AB, priority 2013, dated 2015).

Legend:
BT474 xenograft = assay: Tumour growth inhibition, BT474 xenograft model; type: in vivo, mouse
Protocol: BT474 is an estrogen receptor positive breast tumour cell lines with elevated Her2 expression and carries a mutation in the PIK3CA gene (K111N). Female Swiss athymic nude mice (swiss nu/nu-AZUK) were transplanted subcutaneously with human epithelial breast ductal carcinoma cell line BT474c (derived in AZ from BT474-ATCC HTB-20) tumours passaged in mice. Mice were implanted with 0.36 mg 60 day oestrogen pellet (Innovative Research of America) 24 hours prior to cell implantation. 5×10^6 cells in 50% matrigel (BD Bioscience) were injected s.c. on the left flank of the animals.
Animals were randomised into groups of 10-15 when tumours reached a volume of ˜200-300 mm^3 and treatment commenced. Animals were dosed for 3-4 weeks by peroral route, with compound in a suitable vehicle at defined doses and schedules. Tumours were measured two-three times weekly by caliper and volume of tumours calculated using elliptical formula (pi/6×width×width×length).

SNU216 = assay: Cell proliferation assay (MTS); type: cell-based, human
Protocol: (§1) The sensitivity of a panel of human cancer cell lines to the effects of compounds was determined in a standard proliferation assay.
(§2) Cells were plated in 96 well plates at densities of 1000-6000 cells per well in RPMI media containing 10% FBS. After incubation at 37° C. for 16 hours, various concentrations of compound were added to the assay plates. After incubation for an additional 72 h, the viable cells were determined by the addition of MTS reagent (Promega #3582) to each well for 2 h. […] The formazan product was then quantitated by absorbance at 490 nm, as an indicator of the relative number of live cells. In order to determine the GI50 (concentration at which growth of cells was inhibited by 50%) the relative number of cells present at the time of drug addition was determined by comparison with the MTS readout before the drug was added, and this value was subtracted from the 72 hr value of untreated cells as a measure of cell growth during the assay.

C99 = assay: Cell proliferation assay (MTS); type: cell-based, human
Protocol: as §1
(§3) Cells were plated in 96 well plates at densities of 1000-6000 cells per well in RPMI media containing 10% FBS. After incubation at 37° C. for 16 hours, various concentrations of compound were added to the assay plates. After incubation for an additional 72 h, the viable cells were determined by the addition of MTS reagent (Promega #3582) to each well for 2 h. MTS is a tetrazolium salt that is bioreduced by metabolically active cells in the presence of an electron coupling reagent to formazan. The formazan product was then quantitated by absorbance at 490 nm, as an indicator of the relative number of live cells. In order to determine the GI50 (concentration at which growth of cells was inhibited by 50%) the relative number of cells present at the time of drug addition was determined by comparison with the MTS readout before the drug was added, and this value was subtracted from the 72 hr value of untreated cells as a measure of cell growth during the assay.

977 = assay: Cell proliferation assay (MTS); type: cell-based, human
Protocol: as §1, §3

CAPAN2 = assay: Cell proliferation assay (MTS); type: cell-based, human
Protocol: as §1, §2

SNU878 = assay: Cell proliferation assay (MTS); type: cell-based, human
Protocol: as §1, §3

MDAMB436 = assay: Cell proliferation assay (MTS); type: cell-based, human
Protocol: as §1, §3

Which tumour growth (BT474 xenograft; Example 3 alone 25 mg/kg BID every day, FIG. 11) does the source give for CCn1nc(C2CCN(C(=O)CCO)CC2)nc1-c1cnc(N)c(-c2nnc(C(C)(C)C)o2)n1 [Example 3, 1-(4-(5-(5-amino-6-(5-tert-butyl-1,3,4-oxadiazol-2-yl)pyrazin-2-yl)-1-ethyl-1H-1,2,4-triazol-3-yl)piperidin-1-yl)-3-hydroxypropan-1-one] here?
Its tumour growth is “partially inhibited growth”.

What about the tumour growth (BT474 xenograft; Example 3 alone 25 mg/kg BID, 2 days on/5 days off, vs vehicle, FIG. 10) of the same molecule?
The tumour growth was “partially inhibited tumour growth”.

What about the tumour growth (BT474 xenograft; Example 3 alone 50 mg/kg BID, 2 days on/5 days off, vs vehicle, FIG. 9) of the same molecule?
Its tumour growth is “partially inhibited tumour growth”.

What about the Category (SNU216) of the same molecule?
Its Category is “Resistant (resistant (GI50>1.0 μM))”.

And the GI50 (SNU216; Homo sapiens, SNU-216, Stomach, PIK3CA WT)?
Its GI50 is 1.07 µM.

And the Category (C99)?
The Category was “Resistant (resistant (GI50>1.0 μM))”.

And the GI50 (C99; Homo sapiens, Colon, PIK3CA WT)?
Its GI50 is 1.22 µM.

And the Category 977?
Its Category is “Resistant (resistant (GI50>1.0 μM))”.

And the GI50 (977; Homo sapiens, Bladder, PIK3CA WT)?
Its GI50 is 4.42 µM.

What about the Category (CAPAN2) of the same molecule?
Its Category is “Resistant (resistant (GI50>1.0 μM))”.

And the GI50 (CAPAN2; Homo sapiens, Capan-2, Pancreas, PIK3CA WT)?
Its GI50 is 13.4 µM.

And the Category (SNU878)?
The Category was “Resistant (resistant (GI50>1.0 μM))”.

And the GI50 (SNU878; Homo sapiens, Liver, PIK3CA WT)?
The GI50 was 16.1 µM.

And the Category (MDAMB436)?
Its Category is “Resistant (resistant (GI50>1.0 μM))”.

And the GI50 (MDAMB436; Homo sapiens, MDA-MB-436, Breast, PIK3CA WT)?
The GI50 was 30 µM.
